One assay addresses D(2) dopamine receptor (Homo sapiens, UniProt P14416). The assay is described as follows: Displacement of [3H]methylspiperone from dopamine D2 receptor expressed in CHO cells. It is filed as cell-based. In general terms: In a radioligand displacement assay an active substance lowers the binding of a labelled ligand.
In the next assay the target is D(1A) dopamine receptor (Homo sapiens, UniProt P21728). The assay is described as follows: Displacement of [3H]SCH 23390 from dopamine D1 receptor expressed in CHO cells. It is filed as cell-based.
Sequence of D(1A) dopamine receptor (P21728 whole entry): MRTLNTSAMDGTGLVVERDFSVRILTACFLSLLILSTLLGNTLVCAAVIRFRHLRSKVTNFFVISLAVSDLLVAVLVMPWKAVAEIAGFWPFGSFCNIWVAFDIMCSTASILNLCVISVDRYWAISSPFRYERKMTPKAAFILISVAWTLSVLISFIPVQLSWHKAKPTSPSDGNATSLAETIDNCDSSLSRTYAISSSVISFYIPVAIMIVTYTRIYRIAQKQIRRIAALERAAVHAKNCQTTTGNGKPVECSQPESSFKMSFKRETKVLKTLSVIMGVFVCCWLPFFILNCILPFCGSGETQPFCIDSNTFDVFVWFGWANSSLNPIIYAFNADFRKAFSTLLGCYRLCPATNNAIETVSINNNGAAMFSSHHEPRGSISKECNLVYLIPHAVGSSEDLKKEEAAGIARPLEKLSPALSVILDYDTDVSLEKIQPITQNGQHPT

Sequence of D(2) dopamine receptor (P14416 whole entry): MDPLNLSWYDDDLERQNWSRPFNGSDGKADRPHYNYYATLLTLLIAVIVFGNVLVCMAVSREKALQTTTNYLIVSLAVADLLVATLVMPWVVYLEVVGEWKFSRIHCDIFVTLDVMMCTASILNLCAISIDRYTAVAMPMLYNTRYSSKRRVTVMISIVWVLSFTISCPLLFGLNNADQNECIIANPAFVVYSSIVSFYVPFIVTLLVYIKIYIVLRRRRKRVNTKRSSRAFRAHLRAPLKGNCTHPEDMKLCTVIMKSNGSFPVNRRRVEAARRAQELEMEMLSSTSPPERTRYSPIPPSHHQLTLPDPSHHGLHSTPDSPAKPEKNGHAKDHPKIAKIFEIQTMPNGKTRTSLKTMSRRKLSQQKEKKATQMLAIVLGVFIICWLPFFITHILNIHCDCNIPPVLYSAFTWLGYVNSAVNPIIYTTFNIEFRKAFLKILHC

As a reminder, the Ki is the dissociation constant of the complex between target and ligand, obtained from inhibition or displacement. A high value points to a looser hold on the target. On to `CN1CCN(C2=Nc3cc(Cl)ccc3N(C(=O)Nc3cc(Cl)cc(Cl)c3)c3ccccc32)CC1`, for which the Ki at D(2) dopamine receptor stood at 3900 nM; at D(1A) dopamine receptor it was 175 nM.

Regarding `O=C(NN1c2ccc(Cl)cc2N=C(N2CCN(Cc3ccc4c(c3)OCCO4)CC2)c2ccccc21)c1ccccc1Cl`, the results for the Ki at D(2) dopamine receptor and on D(1A) dopamine receptor were greater than 2000 nM and 238 nM, respectively.

Turning to `CN1CCN(C2=Nc3ccccc3N(NC(=O)c3cc(F)ccc3C(F)(F)F)c3ccc(Cl)cc32)CC1`, the Ki came out at 421 nM on D(2) dopamine receptor and 22 nM on D(1A) dopamine receptor.

As for `Clc1ccc2c(c1)N=C(N1CCN(Cc3ccc4c(c3)OCCO4)CC1)c1ccccc1N2`, the values for the inhibition constant (Ki) at D(2) dopamine receptor and at D(1A) dopamine receptor were 29 nM and 583 nM, respectively.

Regarding `COc1cc(C(=O)NN2c3ccccc3N=C(N3CCN(C)CC3)c3cc(Cl)ccc32)cc(OC)c1OC`, the Ki on D(2) dopamine receptor was 3230 nM; on D(1A) dopamine receptor, 20 nM.

Turning to `COc1cccc(C(=O)NN2c3ccccc3N=C(N3CCN(C)CC3)c3cc(Cl)ccc32)c1`, the Ki at D(2) dopamine receptor turned out to be 1380 nM; on D(1A) dopamine receptor, 86 nM.

Take `CN1CCN(C2=Nc3ccccc3N(NC(=O)c3cc(F)c(F)c(F)c3F)c3ccc(Cl)cc32)CC1`: the inhibition constant (Ki) at D(2) dopamine receptor worked out at 759 nM; at D(1A) dopamine receptor, 156 nM.

In the case of `O=C(NN1c2ccc(Cl)cc2N=C(N2CCN(Cc3cccc4c3OC(F)(F)O4)CC2)c2ccccc21)c1ccccc1Cl`, the Ki on D(2) dopamine receptor was greater than 3000 nM; on D(1A) dopamine receptor, 4750 nM.

For the molecule `Cc1ccccc1C(=O)NN1c2ccccc2N=C(N2CCN(C)CC2)c2cc(Cl)ccc21`, the Ki is 1570 nM on D(2) dopamine receptor and 48 nM at D(1A) dopamine receptor.

On to `O=C(NN1c2ccc(Cl)cc2N=C(N2CCN(Cc3cccc4c3OCO4)CC2)c2ccccc21)c1ccccc1Cl`, for which the Ki at D(2) dopamine receptor was greater than 2000 nM; on D(1A) dopamine receptor it was 571 nM.

`CN1CCN(C2=Nc3cc(Cl)ccc3N(NC(=O)c3ccccc3Br)c3ccccc32)CC1`: the Ki came to 792 nM on D(2) dopamine receptor and 16 nM at D(1A) dopamine receptor.

Consider `CN1CCN(C2=Nc3ccccc3N(NC(=O)c3ccccc3I)c3ccc(Cl)cc32)CC1`, for which the figures for the inhibition constant Ki on D(2) dopamine receptor and on D(1A) dopamine receptor were 231 nM and 7 nM, respectively.

Turning to `COc1ccccc1CNN1c2ccc(Cl)cc2N=C(N2CCN(C)CC2)c2ccccc21`, the Ki on D(2) dopamine receptor worked out at 202 nM; at D(1A) dopamine receptor, 60 nM.

Take `CN1CCN(C2=Nc3cc(Cl)ccc3N(NC(=O)c3cccnc3)c3ccccc32)CC1`: the inhibition constant (Ki) at D(2) dopamine receptor was determined as 12700 nM; on D(1A) dopamine receptor, 85 nM.

`CN1CCN(C2=Nc3cc(Cl)ccc3N(NC(=O)c3cc(F)ccc3C(F)(F)F)c3ccc(Cl)cc32)CC1`: the Ki was 69 nM at D(2) dopamine receptor and 24 nM on D(1A) dopamine receptor.

With `CN1CCN(C2=Nc3cc(Cl)ccc3N(NC(=O)c3ccc(C#N)cc3)c3ccc(Cl)cc32)CC1`, the results for the Ki at D(2) dopamine receptor and at D(1A) dopamine receptor were 194 nM and 51 nM, respectively.

`CN1CCN(C2=Nc3cc(Cl)ccc3N(NC(=O)c3ccc(C#N)cc3)c3ccccc32)CC1`: the Ki on D(2) dopamine receptor is greater than 2000 nM; at D(1A) dopamine receptor, 68 nM.

On D(2) dopamine receptor, `COc1ccc(C(=O)NN2c3ccc(Cl)cc3N=C(N3CCN(C)CC3)c3ccccc32)cc1` returned a Ki greater than 3000 nM.

Take `Cc1ccc(S(=O)(=O)N2c3ccc(Cl)cc3N=C(N3CCN(C)CC3)c3ccccc32)cc1`: the figures for the Ki at D(2) dopamine receptor and at D(1A) dopamine receptor were 338 nM and 65 nM, respectively.

Consider `CN1CCN(C2=Nc3cc(Cl)ccc3N(NC(=O)c3cccc(C#N)c3)c3ccc(Cl)cc32)CC1`, for which the Ki on D(2) dopamine receptor is 175 nM; at D(1A) dopamine receptor it was 47 nM.

For `CN1CCN(C2=Nc3ccccc3N(NC(=O)c3cccc(C#N)c3)c3ccc(Cl)cc32)CC1`, the inhibitory constant (Ki) at D(2) dopamine receptor was 1190 nM; at D(1A) dopamine receptor, 99 nM.

On to `O=C(NN1c2ccc(Cl)cc2N=C(N2CCN(Cc3ccc(F)cc3F)CC2)c2ccccc21)c1ccccc1Cl`, for which the results for the Ki on D(2) dopamine receptor and on D(1A) dopamine receptor were greater than 3000 nM and 886 nM, respectively.

For the molecule `Clc1ccc2c(c1)N=C(N1CCN(Cc3cccc4c3OCO4)CC1)c1ccccc1N2`, the Ki worked out at 80 nM on D(2) dopamine receptor and 637 nM on D(1A) dopamine receptor.

`CN1CCN(C2=Nc3cc(Cl)ccc3N(NC(=O)c3cccc(F)c3F)c3ccccc32)CC1` had a Ki on D(1A) dopamine receptor of 16 nM.

`Cc1ccc(CN2CCN(C3=Nc4cc(Cl)ccc4N(NC(=O)c4ccccc4Cl)c4ccccc43)CC2)c(C)c1`: the results for the Ki at D(2) dopamine receptor and on D(1A) dopamine receptor were greater than 3000 nM and 1100 nM, respectively.

For `CC(C)CN1CCN(C2=Nc3cc(Cl)ccc3N(NC(=O)c3ccccc3Cl)c3ccccc32)CC1`, the values for the Ki on D(2) dopamine receptor and on D(1A) dopamine receptor were greater than 3000 nM and 81 nM, respectively.

As for `CN1CCN(C2=Nc3cc(Cl)ccc3N(NC(=O)c3cccc(C#N)c3)c3ccccc32)CC1`, the Ki worked out at 3650 nM on D(2) dopamine receptor and 62 nM at D(1A) dopamine receptor.

For `COc1ccccc1C(=O)NN1c2ccc(Cl)cc2N=C(N2CCN(C)CC2)c2ccccc21`, the Ki on D(2) dopamine receptor worked out at 1130 nM; on D(1A) dopamine receptor, 13 nM.

With `Cc1ccccc1S(=O)(=O)N1c2ccc(Cl)cc2N=C(N2CCN(C)CC2)c2ccccc21`, the Ki on D(2) dopamine receptor is 63 nM; at D(1A) dopamine receptor it was 71 nM.

Take `COc1cc(C(=O)NN2c3ccc(Cl)cc3N=C(N3CCN(C)CC3)c3cc(Cl)ccc32)cc(OC)c1OC`: the Ki at D(2) dopamine receptor worked out at 267 nM; on D(1A) dopamine receptor, 16 nM.

Regarding `CCCN1CCN(C2=Nc3cc(Cl)ccc3N(NC(=O)c3ccccc3Cl)c3ccccc32)CC1`, the figures for the Ki at D(2) dopamine receptor and on D(1A) dopamine receptor were 409 nM and 26 nM, respectively.

`O=C(NN1c2ccc(Cl)cc2N=C(N2CCN(CC3CCCCC3)CC2)c2ccccc21)c1ccccc1Cl`: the Ki was greater than 3000 nM at D(2) dopamine receptor and 294 nM at D(1A) dopamine receptor.

`CN1CCN(C2=Nc3cc(Cl)ccc3N(NC(=O)c3ccc(F)cc3C(F)(F)F)c3ccccc32)CC1`: the Ki came to 1620 nM on D(2) dopamine receptor and 49 nM at D(1A) dopamine receptor.

Turning to `Cc1ccccc1C(=O)NN1c2ccc(Cl)cc2N=C(N2CCN(C)CC2)c2cc(Cl)ccc21`, the Ki was determined as 175 nM at D(2) dopamine receptor and 2 nM on D(1A) dopamine receptor.

As for `O=C(NN1c2ccc(Cl)cc2N=C(N2CCN(Cc3ccccc3F)CC2)c2ccccc21)c1ccccc1Cl`, the Ki at D(2) dopamine receptor is greater than 2000 nM; at D(1A) dopamine receptor it was 503 nM.

`COc1cccc(OC)c1C(=O)NN1c2ccccc2N=C(N2CCN(C)CC2)c2cc(Cl)ccc21`: the figures for the Ki at D(2) dopamine receptor and at D(1A) dopamine receptor were 197 nM and 6 nM, respectively.

Take `CN1CCN(C2=Nc3cc(Cl)ccc3N(NC(=O)c3ccc4c(c3)OCO4)c3ccc(Cl)cc32)CC1`: the Ki was found to be 286 nM at D(2) dopamine receptor and 130 nM at D(1A) dopamine receptor.

On to `CN1CCN(C2=Nc3cc(Cl)ccc3N(NC(=O)c3cc(F)c(F)c(F)c3F)c3ccc(Cl)cc32)CC1`, for which the Ki at D(2) dopamine receptor worked out at 270 nM; on D(1A) dopamine receptor, 98 nM.

On to `CN1CCN(C2=Nc3cc(Cl)ccc3N(NC(=O)c3ccc4c(c3)OCO4)c3ccccc32)CC1`, for which the Ki on D(2) dopamine receptor was 828 nM; on D(1A) dopamine receptor, 56 nM.

Take `O=C(NN1c2ccc(Cl)cc2N=C(N2CCN(Cc3cccc(OC(F)(F)F)c3)CC2)c2ccccc21)c1ccccc1Cl`: the Ki is greater than 3000 nM on D(2) dopamine receptor and 2570 nM on D(1A) dopamine receptor.

As for `FC1(F)Oc2cccc(CN3CCN(C4=Nc5cc(Cl)ccc5Nc5ccccc54)CC3)c2O1`, the inhibition constant Ki at D(2) dopamine receptor was found to be 8 nM; at D(1A) dopamine receptor it was 3110 nM.

As for `CN1CCN(C2=Nc3cc(Cl)ccc3N(NC(=O)c3cc(F)c(F)c(F)c3F)c3ccccc32)CC1`, the Ki was 1280 nM on D(2) dopamine receptor and 32 nM on D(1A) dopamine receptor.

`COc1cc(C(=O)NN2c3ccc(Cl)cc3N=C(N3CCN(C)CC3)c3ccccc32)cc(OC)c1OC`: the Ki at D(2) dopamine receptor was found to be 5560 nM; at D(1A) dopamine receptor, 31 nM.

For the molecule `CN1CCN(C2=Nc3cc(Cl)ccc3N(NC(=O)c3cccc(C(F)(F)F)c3)c3ccccc32)CC1`, the Ki on D(2) dopamine receptor was found to be 1360 nM; at D(1A) dopamine receptor, 148 nM.

For `CN1CCN(C2=Nc3ccccc3N(NC(=O)c3ccc4c(c3)OCO4)c3ccc(Cl)cc32)CC1`, the values for the Ki at D(2) dopamine receptor and at D(1A) dopamine receptor were 1260 nM and 83 nM, respectively.

For the molecule `CC(C)N1CCN(C2=Nc3cc(Cl)ccc3N(NC(=O)c3ccccc3Cl)c3ccccc32)CC1`, the figures for the Ki at D(2) dopamine receptor and on D(1A) dopamine receptor were 998 nM and 191 nM, respectively.

Regarding `CCC(CC)CN1CCN(C2=Nc3cc(Cl)ccc3N(NC(=O)c3ccccc3Cl)c3ccccc32)CC1`, the Ki at D(2) dopamine receptor was greater than 3000 nM; on D(1A) dopamine receptor it was 505 nM.

`COc1cccc(OC)c1C(=O)NN1c2ccc(Cl)cc2N=C(N2CCN(C)CC2)c2cc(Cl)ccc21`: the values for the Ki at D(2) dopamine receptor and on D(1A) dopamine receptor were 97 nM and 11 nM, respectively.

For the molecule `CN1CCN(C2=Nc3ccccc3N(NC(=O)c3ccc(C#N)cc3)c3ccc(Cl)cc32)CC1`, the Ki on D(2) dopamine receptor stood at 1970 nM; at D(1A) dopamine receptor, 64 nM.

Turning to `Cc1ccccc1C(=O)N1c2ccc(Cl)cc2N=C(N2CCN(C)CC2)c2ccccc21`, the Ki was 4930 nM on D(2) dopamine receptor and 1230 nM at D(1A) dopamine receptor.

In turn, `CN1CCN(C2=Nc3cc(Cl)ccc3N(NC(=O)c3ccccc3Cl)c3ccccc32)CC1` returned a Ki on D(1A) dopamine receptor of 4.1 nM.

On to `FC(F)(F)Oc1cccc(CN2CCN(C3=Nc4cc(Cl)ccc4Nc4ccccc43)CC2)c1`, for which the values for the Ki on D(2) dopamine receptor and on D(1A) dopamine receptor were 3.4 nM and 3800 nM, respectively.

For `Fc1ccc(CN2CCN(C3=Nc4cc(Cl)ccc4Nc4ccccc43)CC2)c(F)c1`, the Ki on D(2) dopamine receptor was 177 nM; on D(1A) dopamine receptor, 835 nM.

Consider `Cc1ccc(CN2CCN(C3=Nc4cc(Cl)ccc4Nc4ccccc43)CC2)c(C)c1`, for which the Ki stood at 65 nM on D(2) dopamine receptor and 482 nM on D(1A) dopamine receptor.

On to `CN1CCN(C2=Nc3cc(Cl)ccc3N(NC(=O)c3ccccc3I)c3ccc(Cl)cc32)CC1`, for which the Ki at D(2) dopamine receptor was 36 nM; at D(1A) dopamine receptor, 12 nM.

Regarding `COc1cccc(C(=O)NN2c3ccc(Cl)cc3N=C(N3CCN(C)CC3)c3cc(Cl)ccc32)c1`, the values for the Ki on D(2) dopamine receptor and at D(1A) dopamine receptor were 139 nM and 44 nM, respectively.

Regarding `CC(C)(C)CN1CCN(C2=Nc3cc(Cl)ccc3N(NC(=O)c3ccccc3Cl)c3ccccc32)CC1`, the Ki at D(2) dopamine receptor is greater than 3000 nM; at D(1A) dopamine receptor, 447 nM.

Turning to `CN1CCN(C2=Nc3cc(Cl)ccc3N(NC(=O)c3ccncc3)c3ccccc32)CC1`, the figures for the Ki on D(2) dopamine receptor and on D(1A) dopamine receptor were 28400 nM and 86 nM, respectively.

Regarding `CCN1CCN(C2=Nc3cc(Cl)ccc3N(NC(=O)c3ccccc3Cl)c3ccccc32)CC1`, the Ki on D(2) dopamine receptor is 709 nM; at D(1A) dopamine receptor it was 54 nM.

The values are drawn from ChEMBL document CHEMBL1146903, “Modification of the clozapine structure by parallel synthesis” (Bioorg Med Chem Lett, 2006).
